Broadly, the logP is the decadic logarithm of the partition coefficient of the neutral form, usually between octanol and water. A lower logP goes with a more hydrophilic compound.

Molecules are shown by their SMILES. ≈ marks a conversion by molar mass, not a printed value.

MIC and logP data for 26 molecules are collected here from ChEMBL document CHEMBL1828532, “Synthesis and antitubercular evaluation of novel dibenzo[b,d]furan and 9-methyl-9H-carbazole derived hexahydro-2H-pyrano[3,2-c]quinolines via Povarov reaction” (Eur J Med Chem, 2011).

The subject of series [1] is Mycobacterium tuberculosis. Nature of the series: microbe, parasite or virus in culture. Conditions: H37Rv, 672 h.
Description: Antimycobacterial activity against Mycobacterium tuberculosis H37Rv after 28 days by agar dilution method
A short description of series [2]: Lipophilicity, log P of the compound. Conditions: octanol/water. Type of series: physicochemical.

As to `Fc1ccc2c(c1)[C@@H]1OCCC[C@@H]1[C@@H](c1ccc3oc4ccccc4c3c1)N2` (relative stereo), in series [1], the MIC turned out to be 3.13 µg/mL (≈ 8.38 µM). Moreover, in series [2], the logP is 4.09.

For the molecule `NNC(=O)c1ccncc1` [ISONIAZID], in series [1], the MIC was determined as 0.1 µg/mL (≈ 0.729 µM).

In series [1], `Cn1c2ccccc2c2cc([C@@H]3Nc4ccc(F)cc4[C@@H]4OCCC[C@H]34)ccc21` (relative stereo) gave an MIC of 6.25 µg/mL (≈ 16.2 µM). The same molecule returned a logP in series [2] of 4.25.

In turn, `CC[C@@H](CO)NCCN[C@@H](CC)CO` [ETHAMBUTOL] showed an MIC in series [1] of 3.13 µg/mL (≈ 15.3 µM).

In the case of `Cc1ccc2c(c1)[C@@H]1OCCC[C@@H]1[C@H](c1ccc3oc4ccccc4c3c1)N2`, the MIC in series [1] came to 12.5 µg/mL (≈ 33.8 µM). The molecule also gave a logP in series [2] of 4.42.

In turn, `Brc1ccc2c(c1)[C@@H]1OCCC[C@@H]1[C@H](c1ccc3oc4ccccc4c3c1)N2` (relative stereo) yielded an MIC in series [1] of 12.5 µg/mL (≈ 28.8 µM). Moreover, the logP in series [2] was determined as 4.76.

Regarding `Cn1c2ccccc2c2cc([C@@H]3Nc4ccc(Cl)cc4[C@@H]4OCCC[C@H]34)ccc21` (relative stereo), the MIC in series [1] came to 12.5 µg/mL (≈ 31 µM). Further, the lipophilicity (logP) in series [2] was determined as 4.65.

`c1ccc2c(c1)N[C@@H](c1ccc3oc4ccccc4c3c1)[C@H]1CCCO[C@@H]21` (relative stereo) returned an MIC in series [1] of 25 µg/mL (≈ 70.3 µM). In addition, the logP in series [2] is 3.92.

Turning to `Cc1ccc2c(c1)[C@@H]1OCCC[C@@H]1[C@H](c1ccc3c(c1)c1ccccc1n3C)N2` (relative stereo), the MIC in series [1] was 25 µg/mL (≈ 65.4 µM). Moreover, the lipophilicity (logP) in series [2] is 4.58.

With `Fc1ccc2c(c1)[C@@H]1OCCC[C@@H]1[C@H](c1ccc3oc4ccccc4c3c1)N2` (relative stereo), in series [1], the MIC is 3.13 µg/mL (≈ 8.38 µM). In series [2], this molecule yielded a logP of 4.09.

On to `Cc1ccc2c(c1)[C@@H]1OCCC[C@@H]1[C@@H](c1ccc3oc4ccccc4c3c1)N2` (relative stereo), for which the MIC in series [1] was 12.5 µg/mL (≈ 33.8 µM). The molecule further yielded a lipophilicity (logP) in series [2] of 4.42.

The molecule `Brc1ccc2c(c1)[C@@H]1OCCC[C@@H]1[C@@H](c1ccc3oc4ccccc4c3c1)N2` (relative stereo) returned an MIC in series [1] of 6.25 µg/mL (≈ 14.4 µM). The molecule further gave a logP in series [2] of 4.76.

In series [1], `Cn1c2ccccc2c2cc([C@@H]3Nc4ccccc4[C@@H]4OCCC[C@H]34)ccc21` (relative stereo) showed an MIC of 25 µg/mL (≈ 67.8 µM). The molecule also gave a logP in series [2] of 4.1.

In turn, `COc1ccc2c(c1)[C@@H]1OCCC[C@@H]1[C@H](c1ccc3oc4ccccc4c3c1)N2` (relative stereo) showed an MIC in series [1] of 12.5 µg/mL (≈ 32.4 µM). The log partition coefficient (logP) in series [2] was 3.81.

The molecule `COc1ccc2c(c1)[C@@H]1OCCC[C@@H]1[C@@H](c1ccc3c(c1)c1ccccc1n3C)N2` (relative stereo) yielded an MIC in series [1] of 25 µg/mL (≈ 62.7 µM). In series [2], this molecule had a logP of 3.97.

In series [1], `Cc1ccc2c(c1)[C@@H]1OCCC[C@@H]1[C@@H](c1ccc3c(c1)c1ccccc1n3C)N2` (relative stereo) came in with an MIC of 25 µg/mL (≈ 65.4 µM). Further, the logP in series [2] worked out at 4.58.

Turning to `c1ccc2c(c1)N[C@H](c1ccc3oc4ccccc4c3c1)[C@H]1CCCO[C@@H]21` (relative stereo), in series [1], the MIC came out at 25 µg/mL (≈ 70.3 µM). The molecule further yielded a logP in series [2] of 3.92.

`Cn1c2ccccc2c2cc([C@H]3Nc4ccc(F)cc4[C@@H]4OCCC[C@H]34)ccc21`: the MIC in series [1] is 3.13 µg/mL (≈ 8.1 µM). The molecule also registered a log partition coefficient (logP) in series [2] of 4.25.

In turn, `COc1ccc2c(c1)[C@@H]1OCCC[C@@H]1[C@@H](c1ccc3oc4ccccc4c3c1)N2` (relative stereo) showed an MIC in series [1] of 12.5 µg/mL (≈ 32.4 µM). Further, in series [2], the lipophilicity (logP) was 3.81.

With `CO[C@H]1/C=C/O[C@@]2(C)Oc3c(C)c(O)c4c(O)c(c(/C=N/N5CCN(C)CC5)c(O)c4c3C2=O)NC(=O)/C(C)=C\C=C\[C@H](C)[C@H](O)[C@@H](C)[C@@H](O)[C@@H](C)[C@H](OC(C)=O)[C@@H]1C` [RIFAMPIN], the MIC in series [1] was 0.2 µg/mL (≈ 0.243 µM).

With `Cn1c2ccccc2c2cc([C@H]3Nc4ccc(Br)cc4[C@@H]4OCCC[C@H]34)ccc21` (relative stereo), the MIC in series [1] was 6.25 µg/mL (≈ 14 µM). Also, the logP in series [2] turned out to be 4.93.

On to `Cn1c2ccccc2c2cc([C@@H]3Nc4ccc(Br)cc4[C@@H]4OCCC[C@H]34)ccc21` (relative stereo), for which the MIC in series [1] worked out at 25 µg/mL (≈ 55.9 µM). The molecule also gave a logP in series [2] of 4.93.

Regarding `Cn1c2ccccc2c2cc([C@H]3Nc4ccccc4[C@@H]4OCCC[C@H]34)ccc21` (relative stereo), the MIC in series [1] worked out at 12.5 µg/mL (≈ 33.9 µM). Besides, the logP in series [2] was 4.1.

In series [1], `Clc1ccc2c(c1)[C@@H]1OCCC[C@@H]1[C@H](c1ccc3oc4ccccc4c3c1)N2` (relative stereo) had an MIC of 25 µg/mL (≈ 64.1 µM). The logP in series [2] amounted to 4.49.

In series [1], `Cn1c2ccccc2c2cc([C@H]3Nc4ccc(Cl)cc4[C@@H]4OCCC[C@H]34)ccc21` (relative stereo) displayed an MIC of 6.25 µg/mL (≈ 15.5 µM). This molecule also gave a logP in series [2] of 4.65.

With `Clc1ccc2c(c1)[C@@H]1OCCC[C@@H]1[C@@H](c1ccc3oc4ccccc4c3c1)N2` (relative stereo), the MIC in series [1] was 6.25 µg/mL (≈ 16 µM). The same molecule came in with a logP in series [2] of 4.49.
